Results on seven compounds are retold here after publication PMC11597697, “Chemical Composition and Bioactivity Dataset Integration to Identify Antiproliferative Compounds in Phyllanthus Plants” (Pharmaceutics, 2024).

As usually defined, the IC50 is the concentration at which inhibition is half-maximal.

Like-named read-outs stand apart in the source and are kept apart here. Bounds are passed on as bounds.

Test [1] relates to L929 (murine fibroblasts). Briefly: Antiproliferative MTT assay, normal fibroblasts L929. The format is cell-based, mouse. The settings on record: for IC50: Mus musculus, read-out: IC50 L929. As to the method: (§1) Human cancer cell lines—prostatic adenocarcinoma (PC-3, ATCC CRL-7934), lung adenocarcinoma (A549, ATCC CCL-185), and cervical carcinoma (SiHa, ATCC HTB-35)—along with normal mouse fibroblasts (L929, ATCC CRL-6364) were cultured as monolayers in Dulbecco’s Modified Eagle Medium (DMEM) supplemented with 10% (v/v) fetal bovine serum (FBS), 1% (v/v) penicillin, and 1% (v/v) streptomycin. These cultures were maintained at 37 °C in a humidified atmosphere with 5% CO2. The antiproliferative effects of Phyllanthus-derived extracts and isolated compounds were evaluated using a previously described method. Cells were seeded at 5 × 10^3/well in 96-well plates (100 µL) and incubated for 24 h. After incubation, the medium was replaced with 100 µL of serum-free medium containing varying concentrations of the treatments (0.5–250 µg/mL for extracts and 0.01–100 µg/mL for pure compounds). Each treatment was tested in triplicate. Controls included a PBS-containing medium as a blank, 1% (w/v) bovine serum albumin-amended medium as a negative control (100% survival), and podophyllotoxin (0.16–100 µg/mL) as a positive control. After 48 h of treatment, cell viability was determined by adding 10 µL of MTT (5 mg/mL) to each well, followed by a 3-h incubation under the same culture conditions. The resulting formazan crystals were dissolved in 100 µL of DMSO, and absorbance was measured at 570 nm using a Varioskan LUX 96-well plate reader (Thermo Fisher Scientific, Waltham, MA, USA). The antiproliferative effects were quantified as the half-maximal inhibitory concentration (IC50) in µg/mL for extracts and µM for pure compounds. Dose–response curves were used to determine IC50 values from non-linear regression using GraphPad 7.0 (GraphPad, San Diego, CA, USA).
(In general: Tetrazolium dyes change colour on reduction, which living cells bring about.)

The subject of the next test is A549 (lung carcinoma). The test can be described thus: Antiproliferative MTT assay, A549. The settings on record: Homo sapiens, read-out: IC50 A549. The class given is cell-based. As to the method: as §1
In test [2] the test system is PC-3 (prostate adenocarcinoma). The test can be described thus: Antiproliferative MTT assay, PC-3. The class given is cell-based. The settings on record: Homo sapiens, read-out: IC50 PC-3. As to the method: as §1
The test system of test [3] is SiHa (cervical carcinoma). The test can be described thus: Antiproliferative MTT assay, SiHa. The class given is cell-based. The note with it: Homo sapiens. As for the experimental part:
as §1

[4] abbreviates: L929, pure compounds, 48 h treatment, MTT, normal cell line.
The mark [5] stands for this setting: A549, pure compounds, 48 h treatment, MTT.
Where [6] appears, read: pure compounds, 48 h treatment, MTT.
Setting [7] is: pure compounds, 48 h treatment, MTT, read-out: IC50 SiHa.

For `COc1cc([C@@H]2c3cc4c(cc3[C@H](O)[C@H]3COC(=O)[C@H]23)OCO4)cc(OC)c1OC` [ppt, podophyllotoxin, reference compound], the IC50 in test [1] (L929, 48 h) was determined as 2.53 µM; with A549 (lung carcinoma) (A549, 48 h) it was 4.82 µM; in test [2] (48 h), 2.22 µM; in test [3] (48 h, read-out: IC50 SiHa) it was 1.85 µM.

For the compound `COc1cc2c(OC)c3c(c(-c4ccc5c(c4)OCO5)c2cc1O)C(=O)OC3` [Compound 3, phyllanthusmin A], the IC50 in test [1] (setting [4]) was determined as 92.3 µM; in the test with A549 (lung carcinoma) (setting [5]) it was 93.2 µM; in test [2] (setting [6]) it was 16.3 µM; in test [3] (setting [7]), 8.61 µM.

Regarding `COc1cc2c(OC)c3c(c(-c4ccc5c(c4)OCO5)c2cc1OC)C(=O)OC3OC` (centres unmarked) [Compound 7, justicidin P], the IC50 is over 100 µM in test [1] (setting [4]), 45.3 µM in the test on A549 (lung carcinoma) (setting [5]), 15.2 µM in test [2] (setting [6]) and 5.23 µM in test [3] (setting [7]).

As for `COc1cc2c(OC)c3c(c(-c4ccc5c(c4)OCO5)c2cc1OC)C(=O)OC3` [Compound 5, justicidin A], the 50% inhibitory concentration (IC50) was over 100 µM in test [1] (setting [4]), 50.3 µM with A549 (lung carcinoma) (setting [5]), 17.6 µM in test [2] (setting [6]) and 6.53 µM in test [3] (setting [7]).

On to `COc1cc(-c2c3c(c(OC)c4cc5c(cc24)OCO5)C(OC(C)=O)OC3=O)cc2c1OCO2` (single isomer, unassigned; (+)) [Compound 6, (+)-5-methoxy-9-(7-methoxybenzo[d][1,3]dioxol-5-yl)-8-oxo-6,8-dihydrofuro[3′,4′:6,7]naphtho[2,3-d][1,3]dioxol-6-yl acetate], for which the 50% inhibitory concentration (IC50) in test [1] (L929, 48 h) worked out at 86.3 µM; in the test with A549 (lung carcinoma) (A549, 48 h), 26.5 µM; in test [2] (48 h), 15.3 µM; in test [3] (48 h, read-out: IC50 SiHa, pure compounds, 48 h treatment, MTT) it was 3.62 µM.

Turning to `O=C1OC[C@H](Cc2ccc3c(c2)OCO3)[C@H]1Cc1ccc2c(c1)OCO2` [Compound 4, (−)-hinokinin], the IC50 came to 76.3 µM in test [1] (setting [4]), 12.3 µM with A549 (lung carcinoma) (setting [5]), 4.55 µM in test [2] (setting [6]) and 61.2 µM in test [3] (setting [7]).

As for `COc1cc(C=C2C(=O)OCC2Cc2ccc(O)c(OC)c2)ccc1O` (single isomer, unassigned; (+)) [Compound 2, (+)-acutissimalignan B], the half-maximal inhibitory concentration (IC50) was over 100 µM in test [1] (setting [4]), 78.6 µM in the test with A549 (lung carcinoma) (setting [5]), 6.55 µM in test [2] (setting [6]) and 56.8 µM in test [3] (setting [7]). Also, the “IC50 L929” value in test [1] (pure compounds, 48 h treatment, MTT, normal cell line) is “no observed cytotoxicity”.
